According to patent US20110294721A1, “ANTIMICROBIAL PEPTIDES” (priority 2008, published 2011):
No end group written: not given here.

Experiments:
Alternaria alternata = experiment: MIC in-vitro inhibition assay, antifungal (Example 2); assay type: cell-based; settings: complete inhibition of spore germination/mycelial growth; Table 1
Experimental: (§1) In-vitro inhibition assays were performed in sterile flat-bottom 96-well plates (Greiner bio-one, Frickenhausen). Antimicrobial peptides were dissolved in 0.01% acetic acid containing 0.2% BSA (500 μg/ml), filter sterilized and stored at −20° C. For inhibition assays dilutions of peptides ranging from 5 to 200 μg/ml were prepared and 10 μl (antibacterial assay) or 20 μl (antifungal assay) of each concentration was loaded per well.
(§2) Spores of fungi were collected by water washes of sporulating cultures grown on 2% malt extract agar and spore concentration was determined by microscopy. The concentration of the spores was adjusted to 1.5-2×10^3 spores/ml in 2% malt extract medium and 80 μl of fungal spores were added per well. The final peptide concentrations used in the fungal inhibition assays were 0, 2, 4, 10, 20, 40, and 100 μg/ml. After overnight incubation at room temperature the plate were put on a rotary shaker (300 rpm) for further two days to ensure consistantly growth. Antifungal effects of the peptides were determined by a microplate reader (Altemaria, Fusarium) at OD590 nm or by visual screening of the plates (Bottytis, Cladosporium).
(§3) The lowest peptide concentration leading to complete inhibition of bacterial growth or spore germination/mycelial growth (minimal inhibition concentration, MIC) was determined for each organism-peptide combination. For each peptide concentration two identical inhibition assays were performed.

Botrytis cinerea = experiment: as above; assay type: cell-based; settings: complete inhibition of spore germination/mycelial growth; Table 1
Experimental: as §1, §2, §3

Cladosporium herbarum = experiment: as above; assay type: cell-based; settings: complete inhibition of spore germination/mycelial growth; Table 1
Experimental: as §1, §2, §3

Enterobacter cloacae = assay type: cell-based
Experimental: (§4) In-vitro inhibition assays were performed in sterile ELISA-plates (Greiner bio-one, Frickenhausen or Nunc, Wiesbaden). Antimicrobial peptides were dissolved in 0.01% acetic acid containing 0.2% BSA and stored at −20° C. […] After incubation for one day at 27° C. growth inhibition of the bacteria was analyzed by a ELISA microplate reader.

Klebsiella pneumoniae = assay type: cell-based
Experimental: as §4

Klebsiiella oxytoca = assay type: cell-based
Experimental: as §4

Pseudomonas aeruginosa = assay type: cell-based
Experimental: as §4

[1] = system: Staphylococcus epidermidis; assay type: cell-based
Experimental: as §4

Yersinia enterocolitica = assay type: cell-based
Experimental: as §4

Escherichia coli (DH5α) = assay type: cell-based
Experimental: (§5) In-vitro inhibition assays were performed in sterile ELISA-plates (Greiner bio-one, Frickenhausen or Nunc, Wiesbaden). Antimicrobial peptides were dissolved in 0.01% acetic acid containing 0.2% BSA and stored at −20° C. For inhibition assays dilutions of peptides ranging from 5 to 500 μg/ml were prepared and 10 μl of each concentration was loaded per well.
(§6) The optical density of bacteria overnight cultures were adjusted to 0.08-0.1 and diluted in BHI-medium (1:1000). 90 μl of this suspension containing about 10^5-10^6 CFU/ml of tested bacteria were added to each well resulting in final peptide concentrations of 0, 0.5, 1, 2, 5, 10, 20, and 50 μg/ml. After incubation for one day at 27° C. growth inhibition of the bacteria was analyzed by a ELISA microplate reader. The lowest concentration, in which there is no observable growth (>90% inhibition) is referred to as minimal inhibitory concentration (MIC).
(§7) In-vitro inhibition assays were performed as described in Example 5 above.

Staphylococcus aureus = assay type: cell-based
Experimental: as §5, §6, §7

[2] = system: Pectobacterium carotovorum sub. carotovorum; settings: complete inhibition of bacterial growth; overnight 25° C.; Table 1
Xanthomonas vesicatoria = settings: complete inhibition of bacterial growth; overnight 25° C.; Table 1
[3] = system: Pseudomonas syringae pv. tomato; settings: complete inhibition of bacterial growth; overnight 25° C.; Table 1
[4] = system: Pseudomonas syringae pv. syringae; settings: complete inhibition of bacterial growth; overnight 25° C.; Table 1
Pseudomonas corrugata = settings: complete inhibition of bacterial growth; overnight 25° C.; Table 1

KRRLAAFRAFRGALKSVLKK-NH2 [SP16]
Minimal inhibition concentration (MIC) (Alternaria alternata): >100 µg/mL | Minimal inhibition concentration (MIC) (Botrytis cinerea): >100 µg/mL | Minimal inhibition concentration (MIC) (Cladosporium herbarum): 20 µg/mL | Activity against human pathogens (MIC) (Enterobacter cloacae): >50 µg/mL | Activity against human pathogens (MIC) (Klebsiella pneumoniae): >50 µg/mL | Activity against human pathogens (MIC) (Klebsiiella oxytoca): >50 µg/mL | Activity against human pathogens (MIC) (Pseudomonas aeruginosa): >50 µg/mL | Activity against human pathogens (MIC) [1]: 20 µg/mL | Activity against human pathogens (MIC) (Yersinia enterocolitica): >50 µg/mL | Activity against human pathogens (MIC) (Escherichia coli (DH5α)): 10 µg/mL | Activity against human pathogens (MIC) (Staphylococcus aureus): >50 µg/mL | Minimal inhibition concentration (MIC) [2]: >40 µg/mL | Minimal inhibition concentration (MIC) (Xanthomonas vesicatoria): 5 µg/mL | Minimal inhibition concentration (MIC) [3]: 5 µg/mL | Minimal inhibition concentration (MIC) [4]: 5 µg/mL | Minimal inhibition concentration (MIC) (Pseudomonas corrugata): 2.5 µg/mL
